The source of these data is patent US20050101618A1, “Selective erbB2 inhibitor/anti-erbB antibody combinations in the treatment of cancer” (Pfizer Inc, priority 2003, published 2005).

Data set [1] in a line: Body weight and tolerability in BT-474 tumor-bearing mice.
Protocol: Cells were inoculated SC (5 million cells/animal) into female athymic mice. […] The tumor measurements and body weight changes were obtained on days 1, 5, 8, 12, 15, 19, 22, 26 and 28. Tumor volume was calculated by the following formula: Tumor volume (mm^3)=(W×W)/2×L (L=length & W=width).
• Values given represent the average tumor volume (mm^3) ±SE; Values in parenthesis are the average body weight (g). • % Growth Inhibition=[Tumor volume on day 28 of treated group (mm^3)×100/Tumor volume on day 28 of vehicle group (mm^3)]−100 • % Regression=[Tumor volume on day 28 (mm^3)×100/Tumor volume on day 1(mm^3)]−100
Data set [2] has as its system BT-474 human breast adenocarcinoma. The data set is described as follows: BT-474 xenograft tumor growth inhibition in athymic female mice. It counts as in vivo. Here is the method: The activity of the compounds of formula 1, in vivo, can be determined by the amount of inhibition of tumor growth by a test compound relative to a control. The tumor growth inhibitory effects of various compounds are measured according to the method of Corbett T. H., et al., “Tumor Induction Relationships in Development of Transplantable Cancers of the Colon in Mice for Chemotherapy Assays, with a Note on Carcinogen Structure”, Cancer Res., 35, 2434-2439 (1975) and Corbett T. H., et al., “A Mouse Colon-tumor Model for Experimental Therapy”, Cancer Chemother. Rep. (Part 2)”, 5, 169-186 (1975), with slight modifications. Tumors are induced in the left flank by subcutaneous (sc) injection of 5 million log phase cultured tumor cells (BT-474 human breast adenocarcinoma) suspended in Matrigel (1:1 in PBS). […] Rep., 3, 1-104 (1972). Results are expressed as percent inhibition, according to the formula: Inhibition (%)=(TuWcontrol−TuWtest)/TuWcontrol×100%. The flank site of tumor implantation provides reproducible dose/response effects for a variety of chemotherapeutic agents, and the method of measurement (tumor diameter) is a reliable method for assessing tumor growth rates.
Statistical Analysis: The statistical analysis of tumor growth was done using SAS Version 8, PROC GLM by Non-clinical statistical group.

A short description of data set [3]: Whole blood pharmacokinetics of agent 182 in BT-474 tumor-bearing mice (LC-MS/MS). It counts as in vivo. Particulars: for Cmax: mouse; for Cave0-2 h of Agent 182: day 28. The procedure:
(§1) Whole blood samples (˜50 μl) were collected at 0.5, 1, 2, 4 & 8 h post-dose on day 28 for PK analysis as described below. Tumors were isolated 0.5 h post-dose on day 28 for PD analysis by ELISA.
Blood Sample Analysis: Aliquots (100 μL) of whole blood were diluted with 100 μL acetonitrile (25%) containing an internal standard (CP-702,453, 0.5 μg/ml). Samples were extracted with methyl-tert-butyl ether (MTBE) and 0.1M sodium hydroxide by liquid-liquid extraction using a 96-well technology. After brief vortexing, samples were centrifuged (3000 rpm for 10 min) and the supernatant was transferred into a 96-well plate and evaporated to dryness at 40° C. under a slow stream of nitrogen gas. The residue was reconstituted with 200 μL of 25% acetonitrile and vortexed for approximately 2 min.
The mobile phase was delivered as 90% 10 mM ammonium acetate with 0.1% formic acid and 10% acetonitrile for the first 1 min followed by a linear gradient from 10% to 90% acetonitrile over 1 min. Then the mobile phase was delivered isocratically at 90% acetonitrile for 1 min before a subsequent gradient back to 10% acetonitrile over 0.1 min. The column was then allowed to re-equilibrate at 90% 10 mM ammonium acetate with 0.1% formic acid and 10% acetonitrile for 1.0 min before the next sample injection.
Data collection and integration were accomplished using Analyst (version 1.2). The ratio of peak area responses of drug relative to internal standard was used to construct a standard curve using a linear least squares regression with a 1/x weighting. The dynamic range of the assay was 1.0 to 1000 ng/mL. The performance of the assay was monitored by inclusion of quality control samples prepared in mouse whole blood from a separate weighing. Further details are located in notebook #62874.
PK Data Calculation: Pharmacokinetic parameters were determined by the noncompartmental methods using WinNonLin™, version 3.2. The maximum whole blood concentration (Cmax) and the time at which this concentration was achieved (Tmax) were directly taken from the raw data. Area under the whole blood concentration versus time curve (AUC) was calculated using linear trapezoidal approximation. For estimation of the means and pharmacokinetic parameters, concentrations at the 0 hr and those <LLOQ (1 ng/mL) were assumed to be 0 ng/mL. The means were calculated only if more than 50% of the data exceeded LLOQ of the assay.

For data set [4], the target named is T1, erbB2-autophosphorylation (p-erbB2) (Homo sapiens, UniProt P04626).
T1 construct: endogenous in cells; host or cells: BT-474 human breast adenocarcinoma cells grown as subcutaneous xenografts in female athymic mice
T1 sequence (P04626 23-1255): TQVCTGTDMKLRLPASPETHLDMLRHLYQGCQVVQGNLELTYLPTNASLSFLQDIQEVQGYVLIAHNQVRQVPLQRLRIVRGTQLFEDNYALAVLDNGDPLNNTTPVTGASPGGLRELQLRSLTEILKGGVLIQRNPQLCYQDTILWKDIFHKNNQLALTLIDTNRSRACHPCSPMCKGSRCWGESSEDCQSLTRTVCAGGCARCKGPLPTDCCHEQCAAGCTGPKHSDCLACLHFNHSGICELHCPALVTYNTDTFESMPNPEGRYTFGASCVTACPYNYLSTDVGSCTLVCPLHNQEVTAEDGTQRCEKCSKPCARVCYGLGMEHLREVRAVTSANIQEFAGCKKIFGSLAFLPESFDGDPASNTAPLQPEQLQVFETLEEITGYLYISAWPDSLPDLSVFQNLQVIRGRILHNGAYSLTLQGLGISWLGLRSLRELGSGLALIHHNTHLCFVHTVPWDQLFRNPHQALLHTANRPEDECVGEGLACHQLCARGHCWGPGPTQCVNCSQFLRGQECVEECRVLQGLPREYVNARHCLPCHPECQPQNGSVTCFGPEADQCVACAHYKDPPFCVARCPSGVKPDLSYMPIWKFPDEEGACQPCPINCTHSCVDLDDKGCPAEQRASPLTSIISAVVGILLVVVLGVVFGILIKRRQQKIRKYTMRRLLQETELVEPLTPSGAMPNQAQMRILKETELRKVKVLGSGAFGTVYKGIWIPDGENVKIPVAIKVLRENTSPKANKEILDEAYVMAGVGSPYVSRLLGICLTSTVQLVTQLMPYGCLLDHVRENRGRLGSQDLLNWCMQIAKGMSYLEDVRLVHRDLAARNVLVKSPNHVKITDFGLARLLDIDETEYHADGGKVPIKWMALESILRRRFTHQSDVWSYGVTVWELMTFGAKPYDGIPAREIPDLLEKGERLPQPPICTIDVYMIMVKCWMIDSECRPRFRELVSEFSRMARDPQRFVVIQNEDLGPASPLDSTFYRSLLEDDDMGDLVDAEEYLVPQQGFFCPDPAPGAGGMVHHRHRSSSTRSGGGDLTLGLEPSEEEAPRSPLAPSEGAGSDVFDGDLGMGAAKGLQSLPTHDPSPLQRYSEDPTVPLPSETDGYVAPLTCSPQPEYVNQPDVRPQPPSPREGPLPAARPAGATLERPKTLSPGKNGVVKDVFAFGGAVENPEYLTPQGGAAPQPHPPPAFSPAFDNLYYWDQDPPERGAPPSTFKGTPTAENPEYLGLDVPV
The data set is described as follows: Tumor p-erbB2 reduction (PD) by ELISA in BT-474 tumor-bearing mice. The format is in vivo. Particulars: 0.5 hr after dosing on day 28. The procedure:
as §1
The p-erbB2 levels, i.e., the level of the phosphorylated form of erbB2, were also determined in tumor samples of all groups at 0.5 hr post-dosing on day 28 (Table 5).
A general note: ELISA stands for enzyme-linked immunosorbent assay.

Turning to `COCC(=O)NC/C=C/c1ccc2ncnc(Nc3ccc(Oc4ccc(C)nc4)c(C)c3)c2c1` [Agent 182, E-2-Methoxy-N-(3-{4-[3-methyl-4-(6-methyl-pyridin-3-yloxy)-phenylamino]-quinazolin-6-yl}-allyl)-acetamide], the “Average body weight Day 1” value in data set [1] (Agent 182 25 mg/kg PO QD) is “(21) g”; in data set [1] (Agent 182 50 mg/kg PO QD) it was “(23) g”. Moreover, the results for the “Average body weight Day 28” value in data set [1] (Agent 182 25 mg/kg PO QD) and in data set [1] (Agent 182 50 mg/kg PO QD) were “(23) g” and “(25) g”, respectively. In data set [2] (28 days, Agent 182 50 mg/kg PO QD), the “% Growth inhibition” value is recorded as 40%. The “Tumor volume Day 28” value was found to be 327 ± 45 mm^3 in data set [2] (Agent 182 25 mg/kg PO QD) and 246 ± 36 mm^3 in data set [2] (Agent 182 50 mg/kg PO QD). Also, the “Efficacy against BT-474 tumors which over-express erbB2” value in data set [2] (background statement) is reported as “efficacious”. Further, the Cmax in data set [3] (female, athymic, whole blood, po, 25 mg/kg) was 365 ng/mL; in data set [3] (female, athymic, whole blood, po, 50 mg/kg) it was 2440 ± 740 ng/mL; in data set [3] (in vivo, 25 mg/kg group, earlier observations), 417 to 967 ng/mL. Moreover, the “Cave0-2 h of Agent 182” value in data set [3] (whole blood, Agent 182 25 mg/kg PO QD) stood at 186 ± 71 ng/mL; in data set [3] (whole blood, Agent 182 50 mg/kg PO QD), 1050 ± 330 ng/mL. Besides, the “% Reduction of erbB2-autophosphorylation” value in data set [4] (Agent 182 25 mg/kg PO QD, 25 mg/kg) was 16 ± 5 (N = 3) %; in data set [4] (Agent 182 25 mg/kg PO QD, listed as agent 182, 25 mg/kg), “Approximately 16%”; in data set [4] (Agent 182 50 mg/kg PO QD) it was 57 ± 5 (N = 4) %.

By Cmax is commonly meant the peak of the concentration-time curve.
